From patent US12503475B2 (Centessa Pharmaceuticals (UK) Limited, priority 2020, dated 2025) come the findings set out here.

Where two headings read alike, the source gives them in different places.

The target of this experiment is T1, human orexin type 2 receptor (hOX2R) (Homo sapiens, UniProt O43614).
T1 construct: expressed in transfected cells
T1 sequence (O43614 1-444): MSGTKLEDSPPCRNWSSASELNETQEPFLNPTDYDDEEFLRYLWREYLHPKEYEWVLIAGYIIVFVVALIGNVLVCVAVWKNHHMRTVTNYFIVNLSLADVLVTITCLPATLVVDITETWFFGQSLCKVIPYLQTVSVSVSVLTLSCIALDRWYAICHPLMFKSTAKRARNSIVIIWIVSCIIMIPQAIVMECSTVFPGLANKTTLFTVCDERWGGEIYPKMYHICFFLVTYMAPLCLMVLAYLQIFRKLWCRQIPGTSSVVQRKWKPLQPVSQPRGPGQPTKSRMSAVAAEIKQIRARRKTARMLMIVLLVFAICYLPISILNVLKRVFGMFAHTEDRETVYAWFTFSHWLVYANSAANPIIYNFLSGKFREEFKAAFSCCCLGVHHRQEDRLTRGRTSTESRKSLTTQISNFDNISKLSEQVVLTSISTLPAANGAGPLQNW
The experiment can be described thus: Measurement of orexin type 2 receptor agonist activity (FLIPR calcium fluorescence). Type of experiment: cell-based. The following applies: for EC50: read-out: hOx2 pEC50 (converted); for Emax: CHO, read-out: hOx2 Emax (%). The essentials:
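Agonism was read as fluorescence in cells stably expressing human OX2R. E. is the response at 10 μM relative to orexin A as full agonist (100%).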

[1] abbreviates: CHO cells expressing hOX2R, FLIPR calcium fluorescence.

Usually Emax stands for the maximal effect, on the per cent scale that the assay sets. On to `CN(C)C(=O)N1CC2(CC2)[C@H](NS(C)(=O)=O)[C@@H]1Cc1cccc(-c2ccccc2)c1F` [Compound 110, (6S,7S)-6-((2-fluoro-[1,1′-biphenyl]-3-yl)methyl)-N,N-dimethyl-7-(methylsulfonamido)-5-azaspiro[2.4]heptane-5-carboxamide], for which the Emax is 90 to 100%. Moreover, the EC50 under setting [1] is 0.0794 to 1 nM.

With `CC(C)(O)C(=O)N1CC2(CC2)[C@H](NS(=O)(=O)CF)[C@@H]1Cc1cccc(-c2ccccc2)c1F` [Compound 134, 1-fluoro-N-((6S,7S)-6-((2-fluoro-[1,1′-biphenyl]-3-yl)methyl)-5-(2-hydroxy-2-methylpropanoyl)-5-azaspiro[2.4]heptan-7-yl)methanesulfonamide], under setting [1], the EC50 was 1 to 10 nM and the Emax was 90 to 100%.

Regarding `CNS(=O)(=O)N[C@@H]1[C@H](Cc2cccc(-c3ccccc3)c2F)N(C(=O)[C@H]2CCO2)CC12CC2` [Compound 65, N-((6S,7S)-6-((2-fluoro-[1,1′-biphenyl]-3-yl)methyl)-5-((R)-oxetane-2-carbonyl)-5-azaspiro[2.4]heptan-7-yl)-N-methylsulfuric diamide], under setting [1], the EC50 was 1 to 10 nM and the Emax was 90 to 100%.

In the case of `CO[C@@H](C)CNC(=O)N1CC2(CC2)[C@H](NS(C)(=O)=O)[C@@H]1Cc1cccc(-c2ccccc2)c1F` [Compound 336, (6S,7S)-6-((2-fluoro-[1,1′-biphenyl]-3-yl)methyl)-N-((S)-2-methoxypropyl)-7-(methylsulfonamido)-5-azaspiro[2.4]heptane-5-carboxamide], under setting [1], the EC50 was 1 to 10 nM and the Emax fell in the range of 90 to 100%.

On to `CS(=O)(=O)N[C@@H]1[C@H](Cc2cccc(-c3ccccc3)c2F)N(C(=O)NC2CC(F)(F)C2)CC12CC2` [Compound 83, (6S,7S)-N-(3,3-difluorocyclobutyl)-6-((2-fluoro-[1,1′-biphenyl]-3-yl)methyl)-7-(methylsulfonamido)-5-azaspiro[2.4]heptane-5-carboxamide], for which, under setting [1], the EC50 is 10 to 100 nM and the Emax is 90 to 100%.

Take `O=C([C@H]1CCO1)N1CC2(CC2)[C@H](NS(=O)(=O)C(F)F)[C@@H]1Cc1cc(F)cc(-c2cccc(F)c2)c1F` [Compound 176, 1,1-difluoro-N-((6S,7S)-5-((R)-oxetane-2-carbonyl)-6-((2,3′,5-trifluoro-[1,1′-biphenyl]-3-yl)methyl)-5-azaspiro[2.4]heptan-7-yl)methanesulfonamide]: under setting [1], the EC50 was 1 to 10 nM and the Emax was 90 to 100%.

Consider `O=C(NCC1(F)CC1)N1CC2(CC2)[C@H](NS(=O)(=O)C(F)F)[C@@H]1Cc1cccc(-c2ccccc2)c1F` [Compound 166, (6S,7S)-7-((difluoromethyl)sulfonamido)-6-((2-fluoro-[1,1′-biphenyl]-3-yl)methyl)-N-((1-fluorocyclopropyl)methyl)-5-azaspiro[2.4]heptane-5-carboxamide], for which, under setting [1], the EC50 is 1 to 10 nM and the Emax is 90 to 100%.

For the compound `CS(=O)(=O)N[C@@H]1[C@H](Cc2cccc(-c3ccccc3)c2F)N(C(=O)NCC(F)F)CC12CC2` [Compound 112, (6S,7S)-N-(2,2-difluoroethyl)-6-((2-fluoro-[1,1′-biphenyl]-3-yl)methyl)-7-(methylsulfonamido)-5-azaspiro[2.4]heptane-5-carboxamide], under setting [1], the EC50 was 0.0794 to 1 nM and the Emax was 90 to 100%.

On to `C[C@H](O)CN(C)C(=O)N1CC2(CC2)[C@H](NS(C)(=O)=O)[C@@H]1Cc1cccc(-c2ccccc2)c1F` [Compound 323, (6S,7S)-6-((2-fluoro-[1,1′-biphenyl]-3-yl)methyl)-N-((S)-2-hydroxypropyl)-N-methyl-7-(methylsulfonamido)-5-azaspiro[2.4]heptane-5-carboxamide], for which, under setting [1], the EC50 was 1 to 10 nM and the Emax was 90 to 100%.

Regarding `CO[C@H]1CCN(C(=O)N2CC3(CC3)[C@H](NS(C)(=O)=O)[C@@H]2Cc2cccc(-c3ccccc3)c2F)C1` [Compound 313, N-((6S,7S)-6-((2-fluoro-[1,1′-biphenyl]-3-yl)methyl)-5-((S)-3-methoxypyrrolidine-1-carbonyl)-5-azaspiro[2.4]heptan-7-yl)methanesulfonamide], under setting [1], the EC50 is 10 to 100 nM and the Emax was in the range of 90 to 100%.

`O=C([C@H](O)C(F)F)N1CC2(CC2)[C@H](NS(=O)(=O)CF)[C@@H]1Cc1cc(F)cc(-c2ccccc2)c1F` [Compound 360, N-((6S,7S)-5-((S)-3,3-difluoro-2-hydroxypropanoyl)-6-((2,5-difluoro-[1,1′-biphenyl]-3-yl)methyl)-5-azaspiro[2.4]heptan-7-yl)-1-fluoromethanesulfonamide]: under setting [1], the EC50 is 1 to 10 nM and the Emax fell in the range of 90 to 100%.

Turning to `O=C([C@H](O)CF)N1CC2(CC2)[C@H](NS(=O)(=O)C(F)F)[C@@H]1Cc1cccc(-c2cc(F)cc(F)c2)c1F` [Compound 392, 1,1-difluoro-N-((6S,7S)-5-((S)-3-fluoro-2-hydroxypropanoyl)-6-((2,3′,5′-trifluoro-[1,1′-biphenyl]-3-yl)methyl)-5-azaspiro[2.4]heptan-7-yl)methanesulfonamide], under setting [1], the EC50 is 0.0794 to 1 nM and the maximal effect (Emax) lay within 90 to 100%.

On to `CC(C)(O)C(=O)N1CC2(CC2)[C@H](NS(=O)(=O)CF)[C@@H]1Cc1cccc(-c2cccc(F)c2)c1F` [Compound 177, N-((6S,7S)-6-((2,3′-difluoro-[1,1′-biphenyl]-3-yl)methyl)-5-(2-hydroxy-2-methylpropanoyl)-5-azaspiro[2.4]heptan-7-yl)-1-fluoromethanesulfonamide], for which, under setting [1], the EC50 is 1 to 10 nM and the maximal effect (Emax) lay within 90 to 100%.

Regarding `CS(=O)(=O)NC1C(Cc2cccc(-c3ccccc3)c2F)N(C(=O)[C@H]2C[C@H](F)C2)CC12CC2` (mixture of isomers) [Compound 90, N-(6-((2-fluoro-[1,1′-biphenyl]-3-yl)methyl)-5-((1r,3r)-3-fluorocyclobutane-1-carbonyl)-5-azaspiro[2.4]heptan-7-yl)methanesulfonamide], under setting [1], the EC50 was 1 to 10 nM and the Emax lay in the range of 90 to 100%.

As to `[2H]C([2H])([2H])Oc1c(C[C@H]2[C@@H](NS(=O)(=O)CF)C3(CC3)CN2C(=O)NC([2H])([2H])C([2H])([2H])[2H])cccc1-c1ccccc1` [Compound 397, (6S,7S)-N-(ethyl-d5)-7-((fluoromethyl)sulfonamido)-6-((2-(methoxy-d3)-[1,1′-biphenyl]-3-yl)methyl)-5-azaspiro[2.4]heptane-5-carboxamide], under setting [1], the EC50 was 1 to 10 nM and the maximal response (Emax) is 80 to 90%.

Consider `O=C(NCC(F)F)N1CC2(CC2)[C@H](NS(=O)(=O)CF)[C@@H]1Cc1cccc(-c2ccccc2)c1F` [Compound 187, (6S,7S)-N-(2,2-difluoroethyl)-6-((2-fluoro-[1,1′-biphenyl]-3-yl)methyl)-7-((fluoromethyl)sulfonamido)-5-azaspiro[2.4]heptane-5-carboxamide], for which, under setting [1], the EC50 was 0.0794 to 1 nM and the Emax is 90 to 100%.

Take `CCS(=O)(=O)NC1C(Cc2cc(F)cc(-c3ccccc3)c2F)N(C(=O)[C@H](O)CF)CC12CC2` (stereo in doubt) [Compound 356, N-((6S,7S)-6-((2,5-difluoro-[1,1′-biphenyl]-3-yl)methyl)-5-((S)-3-fluoro-2-hydroxypropanoyl)-5-azaspiro[2.4]heptan-7-yl)ethanesulfonamide]: under setting [1], the EC50 was 10 to 100 nM and the Emax was 90 to 100%.

On to `CCS(=O)(=O)N[C@@H]1[C@H](Cc2cc(F)cc(-c3cc(F)cc(F)c3)c2F)N(C(=O)[C@H]2CCO2)CC12CC2` [Compound 407, N-((6S,7S)-5-((R)-oxetane-2-carbonyl)-6-((2,3′,5,5′-tetrafluoro-[1,1′-biphenyl]-3-yl)methyl)-5-azaspiro[2.4]heptan-7-yl)ethanesulfonamide], for which, under setting [1], the EC50 is 1 to 10 nM and the Emax was in the range of 90 to 100%.

`C[C@@H](F)CNC(=O)N1CC2(CC2)[C@H](NS(=O)(=O)CF)[C@@H]1Cc1cccc(-c2ccccc2)c1F` [Compound 206, (6S,7S)-6-((2-fluoro-[1,1′-biphenyl]-3-yl)methyl)-7-((fluoromethyl)sulfonamido)-N—((R)-2-fluoropropyl)-5-azaspiro[2.4]heptane-5-carboxamide]: the Emax was in the range of 90 to 100%. The EC50 under setting [1] was 1 to 10 nM.

Consider `COC[C@@H]1CCN1C(=O)N1CC2(CC2)[C@H](NS(C)(=O)=O)[C@@H]1Cc1cccc(-c2ccccc2)c1F` [Compound 102, N-((6S,7S)-6-((2-fluoro-[1,1′-biphenyl]-3-yl)methyl)-5-((S)-2-(methoxymethyl)azetidine-1-carbonyl)-5-azaspiro[2.4]heptan-7-yl)methanesulfonamide], for which, under setting [1], the EC50 is 1 to 10 nM and the Emax was 90 to 100%.

Take `CS(=O)(=O)N[C@H]1[C@@H](Cc2cccc(-c3ccccc3)c2F)N(C(=O)[C@H]2CCO2)CC12CC2` [Compound 22, N-((6R,7R)-6-((2-fluoro-[1,1′-biphenyl]-3-yl)methyl)-5-((R)-oxetane-2-carbonyl)-5-azaspiro[2.4]heptan-7-yl)methanesulfonamide]: under setting [1], the EC50 was 100 to 1000 nM and the maximal effect (Emax) is 90 to 100%.

Regarding `O=C([C@H](O)CF)N1CC2(CC2)[C@H](NS(=O)(=O)C(F)F)[C@@H]1Cc1cccc(-c2ccccc2)c1F` [Compound 174, 1,1-difluoro-N-((6S,7S)-5-((S)-3-fluoro-2-hydroxypropanoyl)-6-((2-fluoro-[1,1′-biphenyl]-3-yl)methyl)-5-azaspiro[2.4]heptan-7-yl)methanesulfonamide], under setting [1], the EC50 was 1 to 10 nM and the Emax lay in the range of 90 to 100%.
